Test results reported in patent US20140051679A1, “KINASE INHIBITORS AND METHOD OF TREATING CANCER WITH SAME” (UNIVERISTY HEALTH NETWORKS, priority 2011, published 2014).

Assays:
[1] = test system: MDA-MB-468 breast cancer cells; experiment: Cell growth inhibition, Sulforhodamine B assay, MDA-MB-468; assay type: cell-based; settings: Homo sapiens, 120 h, 5 days culture, SRB assay, read-out: Cell Line GI50 Range MDA-MB-468
[2] = target: T1, human TTK (Homo sapiens, UniProt P33981); experiment: TTK inhibition assay (indirect ELISA); assay type: biochemical; settings: GST-TTK 0.68 nM, 16 μM ATP; read-out: IC50 Ranges TTK
T1 construct: amino terminal GST fusion of full length human TTK; purchased Invitrogen
T1 sequence (P33981 1-857): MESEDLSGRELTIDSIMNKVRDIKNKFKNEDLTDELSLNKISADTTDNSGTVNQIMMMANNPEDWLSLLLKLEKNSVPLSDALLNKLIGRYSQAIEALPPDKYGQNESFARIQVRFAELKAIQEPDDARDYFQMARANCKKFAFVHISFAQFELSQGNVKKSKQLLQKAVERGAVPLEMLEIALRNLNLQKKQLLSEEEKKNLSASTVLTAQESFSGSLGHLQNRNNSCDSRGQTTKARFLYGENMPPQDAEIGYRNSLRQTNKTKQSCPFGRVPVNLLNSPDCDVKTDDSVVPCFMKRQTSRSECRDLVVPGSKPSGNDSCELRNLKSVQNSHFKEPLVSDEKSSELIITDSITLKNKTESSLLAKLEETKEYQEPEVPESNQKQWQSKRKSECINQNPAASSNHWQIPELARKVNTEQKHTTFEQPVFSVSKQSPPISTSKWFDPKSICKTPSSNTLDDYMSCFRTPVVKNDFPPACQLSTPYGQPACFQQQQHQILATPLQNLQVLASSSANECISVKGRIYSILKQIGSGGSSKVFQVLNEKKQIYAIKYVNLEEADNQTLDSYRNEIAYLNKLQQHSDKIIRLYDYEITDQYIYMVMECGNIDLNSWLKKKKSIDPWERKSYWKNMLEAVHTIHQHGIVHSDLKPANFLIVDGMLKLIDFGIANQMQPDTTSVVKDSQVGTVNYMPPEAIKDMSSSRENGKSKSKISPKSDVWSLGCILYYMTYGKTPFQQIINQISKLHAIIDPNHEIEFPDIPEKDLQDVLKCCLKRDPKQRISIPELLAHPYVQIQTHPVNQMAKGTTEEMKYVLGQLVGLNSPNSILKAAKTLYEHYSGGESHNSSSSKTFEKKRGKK

[3] = test system: HCT116 colon cancer cells; experiment: Cell growth inhibition, Sulforhodamine B assay, HCT116; assay type: cell-based; settings: Homo sapiens, HCT-116, 120 h, 5 days culture, SRB assay, read-out: Cell Line GI50 Range HCT116
[4] = test system: HT29 colon cancer cells; experiment: Cell growth inhibition, Sulforhodamine B assay, HT29; assay type: cell-based; settings: Homo sapiens, HT-29, 120 h, 5 days culture, SRB assay, read-out: Cell Line GI50 Range HT29
[5] = target: T2, human PLK4 (Homo sapiens, UniProt O00444); experiment: PLK4 inhibition assay (indirect ELISA); assay type: biochemical; settings: GST-PLK4 4 nM, 15 μM ATP; read-out: IC50 Ranges PLK4
T2 construct: amino terminal GST fusion of residues 1-391 of human PLK4; made in house; host or cells: E. coli
T2 sequence (O00444 1-391): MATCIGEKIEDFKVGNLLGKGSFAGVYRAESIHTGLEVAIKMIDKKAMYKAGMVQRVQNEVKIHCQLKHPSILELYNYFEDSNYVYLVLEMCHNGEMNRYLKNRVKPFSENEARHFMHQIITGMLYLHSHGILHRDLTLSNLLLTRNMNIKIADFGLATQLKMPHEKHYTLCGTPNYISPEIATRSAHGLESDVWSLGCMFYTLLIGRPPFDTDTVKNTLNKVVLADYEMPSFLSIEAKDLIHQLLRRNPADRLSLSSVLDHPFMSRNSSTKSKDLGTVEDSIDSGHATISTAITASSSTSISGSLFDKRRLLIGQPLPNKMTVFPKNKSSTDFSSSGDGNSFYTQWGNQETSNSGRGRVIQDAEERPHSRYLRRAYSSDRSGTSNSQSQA
Description: Active PLK4 was purified from an E. coli expression system as an amino terminal GST fusion of residues 1-391 of human PLK4. The protein was purified from clarified cell extracts after induction at 15° C. overnight using glutathione sepharose, gel permeation chromatography, and ion exchange (Resource Q). The resulting protein was dephosphorylated with lambda phosphatase (NEB cat#P0753), and resolved from the phosphatase using gluthione sepharose. The dephosphorylated GST-PLK4 was stored in aliquots at −80° C. until use.
PLK4 activity was measured using an indirect ELISA detection system. GST-PLK4 (4 nM) was incubated in the presence of 15 μM ATP (Sigma cat#A7699), 50 mM HEPES-Na^2+ pH 7.5, 10 mM MgCl2, 0.01% Brij 35 (Sigma cat#03-3170), in a 96 well microtitre plate pre-coated with MBP (Millipore cat#30-011). The reaction was allowed to proceed for 30 minutes, followed by 5 washes of the plate with Wash Buffer (phosphate buffered saline supplemented with 0.2% Tween 20), and incubation for 30 minutes with a 1:3000 dilution of primary antibody (Cell Signaling cat#9381). The plate was washed 5 times with Wash Buffer, incubated for 30 minutes in the presence of secondary antibody coupled to horse radish peroxidase (BioRad cat#1721019, 1:3000 concentration), washed an additional 5 times with Wash Buffer, and incubated in the presence of TMB substrate (Sigma cat#T0440). The colourimetric reaction was allowed to continue for 5 minutes, followed by addition of stop solution (0.5 N sulphuric acid), and quantified by detection at 450 nm with either a monochromatic or filter based plate reader (Molecular Devices M5 or Beckman DTX880, respectively).
Compound inhibition was determined at either a fixed concentration (10 μM) or at a variable inhibitor concentration (typically 0.5 μM to 0.001 μM in a 10 point dose response titration). Compounds were pre-incubated in the presence of enzyme for 15 minutes prior to addition of ATP and the activity remaining quantified using the above described activity assay. The % Inhibition of a compound was determined using the following formula; % Inhibition=100×(1-(experimental value−background value)/(high activity control−background value)). The IC50 value was determined using a non-linear 4 point logistic curve fit (XLfit4, IDBS) with the formula; (A+(B/(1+((x/C)̂D)))), where A=background value, B=range, C=inflection point, D=curve fit parameter.

[6] = target: T3, Aurora B (Homo sapiens, UniProt Q96GD4); experiment: Aurora B inhibition assay (Z-Lyte); assay type: biochemical; settings: 28 nM Aurora B, 128 μM ATP; read-out: IC50 Ranges Aurora B
T3 construct: purchased Invitrogen PV3970
T3 sequence (Q96GD4 whole entry): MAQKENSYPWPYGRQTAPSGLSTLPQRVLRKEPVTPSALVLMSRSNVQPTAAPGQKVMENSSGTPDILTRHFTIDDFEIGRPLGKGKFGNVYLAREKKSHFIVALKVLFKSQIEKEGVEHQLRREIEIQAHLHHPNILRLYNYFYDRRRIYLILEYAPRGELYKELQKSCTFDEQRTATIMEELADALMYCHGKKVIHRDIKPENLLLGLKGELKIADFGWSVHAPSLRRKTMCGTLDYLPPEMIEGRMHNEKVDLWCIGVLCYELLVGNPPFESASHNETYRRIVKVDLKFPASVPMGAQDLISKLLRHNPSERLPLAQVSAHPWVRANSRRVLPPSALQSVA
Description: Aurora B inhibition was determined using the Z-Lyte assay kit from Invitrogen. The assay was performed using the recommended manufacturer's instructions with 128 μM ATP and 28 nM Aurora B (Invitrogen cat #PV3970). The % inhibition values were determined according to the manufacturer's directions and IC50 values were obtained using a non-linear 4 point logistic curve fit (XLfit4, IDBS)

COC(C(=O)Nc1ccc2[nH]nc(-c3ccc(OC4CCN(C)CC4)cc3)c2c1)c1ccsc1 (stereo not drawn) [Example A37, 2-methoxy-N-(3-(4-((1-methylpiperidin-4-yl)oxy)phenyl)-1H-indazol-5-yl)-2-(thiophen-3-yl)acetamide]
≤ 5 µM: GI50 [1] | IC50 [2] | GI50 [3] | GI50 [4] | IC50 [5] | IC50 [6]

CN1CCC(Oc2ccc(-c3n[nH]c4ccc(NC(=O)C5c6ccccc6CCN5C)cc34)cc2)CC1 (stereo not drawn) [Example A39, 2-methyl-N-(3-(4-((1-methylpiperidin-4-yl)oxy)phenyl)-1H-indazol-5-yl)-1,2,3,4-tetrahydroisoquinoline-1-carboxamide]
≤ 5 µM: GI50 [1] | IC50 [2] | GI50 [3] | GI50 [4] | IC50 [5] | IC50 [6]

C[C@H]1CCCN1[C@H](C(=O)Nc1ccc2[nH]nc(-c3ccc(N4CCOCC4)cc3)c2c1)c1ccsc1 [Example A47, (S)-2-((S)-2-methylpyrrolidin-1-yl)-N-(3-(4-morpholinophenyl)-1H-indazol-5-yl)-2-(thiophen-3-yl)acetamide]
≤ 5 µM: GI50 [1] | IC50 [2] | GI50 [3] | GI50 [4] | IC50 [5] | IC50 [6]

O=C(N[C@H](c1ccccc1)C1CC1)c1ccc2[nH]nc(-c3ccc(N4CCOCC4)cc3)c2c1 [Example A49, (S)—N-(cyclopropyl(phenyl)methyl)-3-(4-morpholinophenyl)-1H-indazole-5-carboxamide]
≤ 5 µM: GI50 [1] | IC50 [2] | GI50 [3] | GI50 [4] | IC50 [5] | IC50 [6]

C[C@@H]1CN(c2ccc(-c3n[nH]c4ccc(NC(=O)C(c5ccsc5)N5CCCC5)cc34)cc2)C[C@H](C)O1 (stereo partly drawn) [Example A50, N-(3-(4-((2S,6R)-2,6-dimethylmorpholino)phenyl)-1H-indazol-5-yl)-2-(pyrrolidin-1-yl)-2-(thiophen-3-yl)acetamide]
≤ 5 µM: GI50 [1] | IC50 [2] | GI50 [3] | GI50 [4] | IC50 [5] | IC50 [6]

O=C(N[C@@H](c1ccccc1)C1CC1)c1ccc2[nH]nc(-c3ccc(N4CCOCC4)cc3)c2c1 [Example A51, (R)—N-(cyclopropyl(phenyl)methyl)-3-(4-morpholinophenyl)-1H-indazole-5-carboxamide]
≤ 5 µM: GI50 [1] | IC50 [2] | GI50 [3] | GI50 [4] | IC50 [5] | IC50 [6]

O=C(Nc1ccc2[nH]nc(-c3ccc(NC4CCOCC4)cc3)c2c1)C(c1ccsc1)N1CCCC1 (stereo not drawn) [Example A71, 2-(pyrrolidin-1-yl)-N-(3-(4-((tetrahydro-2H-pyran-4-yl)amino)phenyl)-1H-indazol-5-yl)-2-(thiophen-3-yl)acetamide]
≤ 5 µM: GI50 [1] | IC50 [2] | GI50 [3] | GI50 [4] | IC50 [5] | IC50 [6]

CN(c1ccc(-c2n[nH]c3ccc(NC(=O)C(c4ccsc4)N4CCCC4)cc23)cc1)C1CCOCC1 (stereo not drawn) [Example A78, N-(3-(4-(methyl(tetrahydro-2H-pyran-4-yl)amino)phenyl)-1H-indazol-5-yl)-2-(pyrrolidin-1-yl)-2-(thiophen-3-yl)acetamide]
≤ 5 µM: GI50 [1] | IC50 [2] | GI50 [3] | GI50 [4] | IC50 [5] | IC50 [6]

C[C@H]1CCCN1[C@H](C(=O)Nc1ccc2[nH]nc(-c3ccc(N4CCOCC4)cc3)c2c1)c1cccs1 [Example A79, (R)-2-((S)-2-methylpyrrolidin-1-yl)-N-(3-(4-morpholinophenyl)-1H-indazol-5-yl)-2-(thiophen-2-yl)acetamide]
≤ 5 µM: GI50 [1] | IC50 [2] | GI50 [3] | GI50 [4] | IC50 [5] | IC50 [6]

CN1CCC(Oc2ccc(-c3n[nH]c4ccc(NC(=O)C(c5ccsc5)N5CCCC5)cc34)cc2N)CC1 (stereo not drawn) [Example A80, N-(3-(3-amino-4-((1-methylpiperidin-4-yl)oxy)phenyl)-1H-indazol-5-yl)-2-(pyrrolidin-1-yl)-2-(thiophen-3-yl)acetamide]
≤ 5 µM: GI50 [1] | IC50 [2] | GI50 [3] | GI50 [4] | IC50 [5] | IC50 [6]

O=CN1CCC(Oc2ccc(-c3n[nH]c4ccc(C(=O)N[C@H](c5ncccc5Cl)C5CC5)cc34)cc2)CC1 [Example A212, (S)—N-((3-chloropyridin-2-yl)(cyclopropyl)methyl)-3-(4-((1-formylpiperidin-4-yl)oxy)phenyl)-1H-indazole-5-carboxamide]
≤ 5 µM: IC50 [2] | IC50 [5] | IC50 [6]

CN1[C@@H]2CC[C@H]1C[C@@H](Oc1ccc(-c3n[nH]c4ccc(C(=O)N[C@H](c5ccccn5)C5CC5)cc34)cc1)C2 [Example A213, N—((S)-cyclopropyl(pyridin-2-yl)methyl)-3-(4-(((1R,3r,5S)-8-methyl-8-azabicyclo[3.2.1]octan-3-yl)oxy)phenyl)-1H-indazole-5-carboxamide]
≤ 5 µM: IC50 [2] | IC50 [5] | IC50 [6]

CN1CCC(Oc2ccc(-c3n[nH]c4ccc(C(=O)N[C@H](c5ccccn5)C5CC5)cc34)cc2)CC1 [Example A214, (S)—N-(cyclopropyl(pyridin-2-yl)methyl)-3-(4-((1-methylpiperidin-4-yl)oxy)phenyl)-1H-indazole-5-carboxamide]
≤ 5 µM: IC50 [2] | IC50 [5] | IC50 [6]
